# Source: patent publication US20030109051A1, “Spin trap for use in biological systems” (RANDOX LABORATORIES LTD, priority 2001, published 2003)
# “Also recorded” adds a separate entry of the source.
# Columns and labels:
# [1] = Reaction of nitric oxide with spin traps, ESR time course (chemical system); settings: for trapping of nitric oxide (spin trap for nitric oxide): chemical system, spin trap in toluene, NO-saturated water
# Description: ESR spectra were obtained using a prototype spectrometer (Jeol (U.K.) Ltd., Welwyn Garden City, England) equipped with a TED11 cylindrical cavity. Samples were analysed at room temperature in a WG-LC-11 quartz flat cell (Wilmad-Glass, Buena, N.J.). In general, the instrument parameters were: microwave frequency 9.2 GHz, microwave power 4 mW, centre field (CF) 336.7 mT, sweep width (SW)±5 mT, number of data points 4095, modulation frequency 100 kHz. For the spin traps reacted with nitric oxide: sweep time (ST) 150 s, time constraint (TC) 0.3 s, modulation width (MW) 0.2 mT. A JEOL ES-DM1 digital manganese oxide marker (0.03 mm of the glass tube inserted per unit on the dial setting) with a dial setting of 500 was used to ensure reproducibility between samples and to identify the position of the signals in the microwave field.
# Samples of DBBNB, DMNB and TMNB were weighed into vacutainers, which were then evacuated Toluene and Tris-HCl buffer, 0.01 M, pH 7.4, were deoxygenated by bubbling with nitrogen gas for 15 min. Deoxygenated toluene was added to DBBNB, DMNB and TMNB, using a gas-tight syringe, to give a final concentration of 0.15 M in the reaction mixture.
# The apparatus shown in FIG. 5 was flushed with nitrogen for 15 min. The vacutainer containing deionised water (4 ml) was then connected to the system and flushed with nitrogen for a further 15 min, to remove any oxygen present in the system, and therefore to prevent the formation of nitrogen dioxide. The NO gas was bubbled through the deionised water via the system for 45 min. The small amount of nitrogen dioxide present in the pressurised NO container was removed by bubbling through two bottles of 5M NaOH. The gas was then bubbled through a scrubbing bottle containing deionised water to remove any alkaline aerosol contamination. Any excess of NO after the deionised water step was bubbled through a scrubbing bottle containing 1M potassium permanganate/1M NaOH to prevent excess NO escaping from the fumehood. The concentration of NO in the resulting NO-saturated water was taken to be 2.0 mM. […]
# [2] = Spin trapping of nitric oxide in whole blood using DMNB (ESR)
# Description: This may be due to the possibility that any NO present or produced by live leucocytes in whole blood may react with thiol groups to form S-nitrosothiols and consequently be not trapped by DMNB. […] Lipopolysaccharide (LPS), which activates cell function, was also used in order to stimulate the cells to increase production of NO. As NEM may be toxic to cells, it was added i) at the same time as LPS and ii) 3.5 hours after the addition of LPS.
# Peripheral blood was taken from a healthy volunteer into a vacutainer containing EDTA. After mixing, 1 ml of the blood was dispensed into each reaction vacutainer by a syringe, as quickly as possible (under 5 min).
# DMNB (2) 0.5406 g was dissolved in 16 ml of deoxygenated toluene (by bubbling through nitrogen gas) to make a 0.25 M solution. 700 μl of the solution was added to each reaction mixture to make a final concentration of 0.1 M. A NO solution was made by bubbling nitric oxide gas through deoxygenated water for 45 min. The resulting NO solution (2 mM) was diluted with deoxygenated water to give 10, 35 and 50 nM solutions. An NEM solution (0. 3 M) was prepared by dissolving 0.0751 g of NEM in deoxygenated water. NEM solution (0.3 M), in amounts of 20, 40 and 80 μl, was added to the reaction mixtures to give a concentration, in 1 ml of blood, of 6, 12 and 24 mM. LPS (1 mg) was dissolved in 1 ml of PBS, 0.01 M, pH 7.4. The working stock solution is 100 μg/ml, diluted with the same buffer. The working stock solution of 10 μl was added to the reaction mixture to give a 1 μg/ml of blood. All transfer of reagents was done by gastight syringe through rubber stopper. The difference in volume due to the addition of NEM and LPS was compensated for by addition of deoxygenated water.
# NO solution, blood without NEM nor LPS and PBS (0.01 M, pH 7.4) as controls were added to DMNB in toluene directly. NEM without LPS was added to blood immediately prior to addition of DMNB in toluene. When LPS was added to blood alone, the mixture of blood and LPS was incubated at room temperature for 3.5 hour before addition to DMNB in toluene. When both NEM and LPS were added to blood, NEM was either added to the blood together with LPS or added 3.5 hour later (Gust before addition of DMNB). When the DMNB in toluene was added, the reaction mixtures were incubated at room temperature on a roller for 2 hour to ensure effective extraction.
# The reaction mixture was then analysed by ESR spectrometry (RE1X, Jeol). Individual results are shown in FIG. 6, and have been reassessed, for comparison purposes, in FIG. 7.
Compound,"reaction time of DBNBS with NO ([1]; comparison value, conditions and source not given)","DMNB-NO adduct ESR signal intensity ([2]; LPS alone (1 μg/ml blood, 3.5 hour) before DMNB)","DMNB-NO adduct ESR signal intensity ([2]; NEM (6, 12, 24 mM) added to blood before DMNB, increase proportional to NEM concentration)",DMNB-NO adduct ESR signal ([2]; both LPS and NEM added to blood),"DMNB-NO adduct ESR signal ([2]; peripheral blood incubated with DMNB in toluene, no NEM, no LPS)",trapping of nitric oxide (spin trap for nitric oxide) [1]
"O=Nc1c(Br)cc(S(=O)(=O)[O-])cc1Br.[Na+] [DBNBS, 3,5-dibromo-4-nitrosobenzene sulphonate, sodium salt, reference compound]",approximately 50 hr,–,–,–,–,–
"Cc1cccc(C)c1N=O [DMNB, 2,6-Dimethylnitrosobenzene]",–,did not Increase the signal intensity,increase in signal intensity,significant increase,did not produce a detectable DMNB-NO adduct signal; also recorded: very little signal was detected,shown to trap nitric oxide
"Cc1cc(C)c(N=O)c(C)c1 [TMNB, 2,4,6-Trimethylnitrosobenzene]",–,–,–,–,–,shown to trap nitric oxide
